Test results: patent US20260034123A1 (Cedilla Therapeutics, Inc., priority 2022, published 2026)
pIC50: −log10 of the molar value.

Columns and labels:
[1] = molecular target: CDK2/Cyclin E1 (Homo sapiens, UniProt P24941); experiment: ADP-Glo Luminescent Kinase Assay (CDK2/E1-37C); assay type: biochemical; conditions: 0.18 nM CDK2/Cyclin E1, 100 μM ATP, Histone H1, 37° C.; read-out: ADPGLO (CDK2/E1-37C): IC50
Experimental: Inhibition of CDK2/Cyclin E1 activity by the presence of small molecules was evaluated using ADP-Glo Luminescent Kinase Assay (Promega). Activated CDK2/Cyclin E1 was incubated with its substrate Histone H1 (SignalChem H10-54N) in the kinase reaction buffer (100 μM ATP, 50 mM HEPES pH 7.5, 10 mM MgCl2, 1 mM EDTA, 2 mM DTT, 0.01% Brij35, 0.5 mg/mL BSA). Luminescence was recorded with an Envision plate reader (PerkinElmer).
Dose titrations of inhibitors in 100% DMSO were combined with 0.36 nM CDK2/Cyclin E1 in reaction buffer. The mixtures were incubated for 60 minutes at 37° C. before the addition of ATP and Histone H1 substrate to initiate the kinase reaction. The final conditions were 0.18 nM CDK2/Cyclin E1, 100 μM ATP, and […] Histone H1. The reactions were incubated at 37° C. for 90 minutes before being stopped with the addition of ADP-Glo reagent. This mixture was incubated at room temperature for 60 minutes before Kinase Detection Solution is added to generate luminescence. The stopped reactions were analyzed on an Envision plate reader. The conversion ratios were normalized to yield % activity, plotted against compound concentration, and fit to a four-parameter equation to determine the IC50 for each compound.

[2] = system: Kuramochi cells RB-WT; experiment: IncuCyte Kuramochi cell proliferation assay, RB-WT; assay type: cell-based; conditions: 72 hours, cell count
Experimental: (§1) IncuCyte® assay was used to measure the effect of disclosed compounds on cell proliferation. Fluorescent microscopy images of cells were taken immediately after compound treatment and 72 hours later. Image analysis software was used to obtain cell counts as a function of compound concentration. Kuramochi cells labeled with mApple-H2B were seeded on 384-well assay-ready plates. Plates were placed in an IncuCyte® (Sartorius) and scanned at 0 and 72 hours. IncuCyte® software was used to count the number of fluorescent nuclei in each well. The fold change in cell count from 0 to 72 hours in wells treated with increasing compounds concentrations (10 pts, 1/2 log dilution, 20 µM top concentration) was normalized to DMSO control wells. The normalized cell counts were fit with dose response curves and a GI50 was calculated.

[3] = system: Kuramochi cells RB-KO; experiment: IncuCyte Kuramochi cell proliferation assay, RB-KO; assay type: cell-based; conditions: 72 hours, cell count, batch mean
Experimental: as §1

Row | SMILES | pIC50 [1] | pIC50 [2] | pIC50 [3]
1 | O=C(O)c1c(COC[C@@H]2CN(C(=O)c3cnn(Cc4ccc(Cl)cc4F)c3)CC23CN(C(=O)C2(C(F)(F)F)CC2)C3)cccc1C1CCC(C(F)(F)F)CC1 (stereo in doubt) [Compound I-71, 2-(((6-(1-(4-chloro-2-fluorobenzyl)-1H-pyrazole-4-carbonyl)-2-(1-(trifluoromethyl)cyclopropane-1-carbonyl)-2,6-diazaspiro[3.4]octan-8-yl)methoxy)methyl)-6-(4-(trifluoromethyl)cyclohexyl)benzoic acid] | ≥ 6.30 | < 5.00 | < 5.00
2 | O=C(O)c1ccccc1-c1c(COC[C@@H]2CN(C(=O)c3cnn(Cc4ccc(F)cc4)c3)CC23CN(C(=O)C2(C(F)(F)F)CC2)C3)cccc1C1CCC(C(F)(F)F)CC1 (stereo in doubt) [Compound I-104, 2′-(((6-(1-(4-fluorobenzyl)-1H-pyrazole-4-carbonyl)-2-(1-(trifluoromethyl)cyclopropanecarbonyl)-2,6-diazaspiro[3.4]octan-8-yl)methoxy)methyl)-6′-(4-(trifluoromethyl)cyclohexyl)-[1,1′-biphenyl]-2-carboxylic acid] | ≥ 6.30 | 5.30 to 6.30 | 5.00 to 5.30
3 | O=C(O)c1ccccc1Cn1cc(C(=O)N2C[C@@H](COCc3cccc(C4CCC(C(F)(F)F)CC4)c3)C3(C2)CN(C(=O)C2(C(F)(F)F)CC2)C3)cn1 (stereo in doubt) [Compound I-113, 2-((4-(8-(((3-(4-(trifluoromethyl)cyclohexyl)benzyl)oxy)methyl)-2-(1-(trifluoromethyl)cyclopropane-1-carbonyl)-2,6-diazaspiro[3.4]octane-6-carbonyl)-1H-pyrazol-1-yl)methyl)benzoic acid] | 5.30 to 6.30 | < 5.00 | < 5.00
4 | O=C(O)c1ccccc1Cn1cc(C(=O)N2C[C@@H](COCc3cccc(C4CCC(C(F)(F)F)CC4)c3F)C3(C2)CN(C(=O)C2(C(F)(F)F)CC2)C3)cn1 (stereo in doubt) [Compound I-115, 2-((4-(8-(((2-fluoro-3-(4-(trifluoromethyl)cyclohexyl)benzyl)oxy)methyl)-2-(1-(trifluoromethyl)cyclopropane-1-carbonyl)-2,6-diazaspiro[3.4]octane-6-carbonyl)-1H-pyrazol-1-yl)methyl)benzoic acid] | ≥ 6.30 | < 5.00 | < 5.00
5 | O=C(O)c1c(COCC2CN(c3cc(F)cc4ncsc34)CC23CN(C(=O)C2(C(F)(F)F)CC2)C3)cccc1C1CCC(C(F)(F)F)CC1 (stereo not drawn) [Compound I-61, 2-(((6-(5-fluorobenzo[d]thiazol-7-yl)-2-(1-(trifluoromethyl)cyclopropane-1-carbonyl)-2,6-diazaspiro[3.4]octan-8-yl)methoxy)methyl)-6-(4-(trifluoromethyl)cyclohexyl)benzoic acid] | < 5.00 | < 5.00 | 
6 | O=C(O)C(=CC1CN(C(=O)c2cnn(Cc3ccc(C(F)(F)F)cc3)c2)CC12CN(C(=O)C1(C(F)(F)F)CC1)C2)Cc1cccc(-c2ccc(C(F)(F)F)cc2)n1 (stereo not drawn) [Compound I-62, 3-(6-(1-(4-(Trifluoromethyl)benzyl)-1H-pyrazole-4-carbonyl)-2-(1-(trifluoromethyl)cyclopropane-1-carbonyl)-2,6-diazaspiro[3.4]octan-8-yl)-2-((6-(4-(trifluoromethyl)phenyl)pyridin-2-yl)methyl)acrylic acid] | < 5.00 | < 5.00 | 
7 | O=C(O)C(=CC1CN(C(=O)c2cnc(O)cn2)CC12CN(C(=O)C1(C(F)(F)F)CC1)C2)Cc1cccc(-c2ccc(C(F)(F)F)cc2)n1 (stereo not drawn) [Compound I-63, 3-(6-(5-hydroxypyrazine-2-carbonyl)-2-(1-(trifluoromethyl)cyclopropane-1-carbonyl)-2,6-diazaspiro[3.4]octan-8-yl)-2-((6-(4-(trifluoromethyl)phenyl)pyridin-2-yl)methyl)acrylic acid] | < 5.00 | < 5.00 | 
8 | CS(=O)(=O)NC(=O)c1c(COC[C@@H]2CN(C(=O)c3cnn(Cc4ccc(C(F)(F)F)cc4)c3)CC23CN(C(=O)C2(C(F)(F)F)CC2)C3)cccc1C1CCC(C(F)(F)F)CC1 (stereo partly drawn) [Compound I-68] | 5.30 to 6.30 | < 5.00 | < 5.00
9 | O=C(c1cnn(Cc2ccc(C(F)(F)F)cc2)c1)N1C[C@@H](COCc2cccc(C3CCC(C(F)(F)F)CC3)c2-c2nn[nH]n2)C2(C1)CN(C(=O)C1(C(F)(F)F)CC1)C2 (stereo partly drawn) [Compound I-69] | ≥ 6.30 | < 5.00 | < 5.00
10 | O=C(O)c1c(COC[C@@H]2CN(C(=O)c3cnn(Cc4ccc(C(F)(F)F)cc4)c3)CC23CN(C(=O)C2(C(F)(F)F)CC2)C3)cccc1N1CCC(C(F)(F)F)CC1 [Compound I-72] | 5.30 to 6.30 | < 5.00 | < 5.00
11 | O=C(O)c1c(COC[C@@H]2CN(C(=O)c3c[nH]nc3Cc3ccccc3)CC23CN(C(=O)C2(C(F)(F)F)CC2)C3)cccc1C1CCC(C(F)(F)F)CC1 (stereo partly drawn) [Compound I-73] | 5.30 to 6.30 | < 5.00 | < 5.00
12 | O=C(O)c1c(COC[C@@H]2CN(C(=O)c3cnn(Cc4ccc(F)cc4C(F)(F)F)c3)CC23CN(C(=O)C2(C(F)(F)F)CC2)C3)cccc1C1CCC(C(F)(F)F)CC1 (stereo partly drawn) [Compound I-76] | ≥ 6.30 | 5.00 to 5.30 | < 5.00
13 | C[C@@H](c1ccc(F)cc1)n1cc(C(=O)N2CC(COCc3cccc(C4CCC(C(F)(F)F)CC4)c3C(=O)O)C3(C2)CN(C(=O)C2(C(F)(F)F)CC2)C3)cn1 (stereo partly drawn) [Compound I-77] | 5.30 to 6.30 | < 5.00 | < 5.00
14 | C[C@H](c1ccc(F)cc1)n1cc(C(=O)N2CC(COCc3cccc(C4CCC(C(F)(F)F)CC4)c3C(=O)O)C3(C2)CN(C(=O)C2(C(F)(F)F)CC2)C3)cn1 (stereo partly drawn) [Compound I-78] | 5.30 to 6.30 | < 5.00 | < 5.00
15 | CC1(C)C[C@@H]1C(=O)N1CC2(CN(C(=O)c3cnn(Cc4ccc(F)cc4)c3)CC2COCc2cccc(C3CCC(C(F)(F)F)CC3)c2C(=O)NS(C)(=O)=O)C1 (stereo partly drawn) [Compound I-86, 2-(((2-((S)-2,2-dimethylcyclopropane-1-carbonyl)-6-(1-(4-fluorobenzyl)-1H-pyrazole-4-carbonyl)-2,6-diazaspiro[3.4]octan-8-yl)methoxy)methyl)-N-(methylsulfonyl)-6-(4-(trifluoromethyl)cyclohexyl)benzamide] | ≥ 6.30 | 5.30 to 6.30 | 5.30 to 6.30
16 | CC1(C)C[C@@H]1C(=O)N1CC2(CN(C(=O)c3cnn(Cc4ccc(F)cc4)c3)CC2COCc2cccc(C3CCC4(CCC4)CC3)c2C(=O)O)C1 (stereo partly drawn) [Compound I-88, 2-(((2-((S)-2,2-dimethylcyclopropane-1-carbonyl)-6-(1-(4-fluorobenzyl)-1H-pyrazole-4-carbonyl)-2,6-diazaspiro[3.4]octan-8-yl)methoxy)methyl)-6-(spiro[3.5]nonan-7-yl)benzoic acid] | ≥ 6.30 | 5.30 to 6.30 | < 5.00
17 | CC1(C(=O)N2CC3(CN(C(=O)c4cnn(Cc5ccc(F)cc5)c4)C[C@H]3COCc3cccc(C4CCC(C(F)(F)F)CC4)c3C(=O)O)C2)CCO1 (stereo partly drawn) [Compound I-93, 2-((((8S)-6-(1-(4-fluorobenzyl)-1H-pyrazole-4-carbonyl)-2-(2-methyloxetane-2-carbonyl)-2,6-diazaspiro[3.4]octan-8-yl)methoxy)methyl)-6-(4-(trifluoromethyl)cyclohexyl)benzoic acid] | 5.30 to 6.30 | < 5.00 | < 5.00
18 | CC(C)(C(=O)N1CC2(CN(C(=O)c3cnn(Cc4ccc(F)cc4)c3)C[C@H]2COCc2cccc(C3CCC(C(F)(F)F)CC3)c2C(=O)O)C1)C(F)(F)F (stereo partly drawn) [Compound I-94, (S)-2-(((6-(1-(4-fluorobenzyl)-1H-pyrazole-4-carbonyl)-2-(3,3,3-trifluoro-2,2-dimethylpropanoyl)-2,6-diazaspiro[3.4]octan-8-yl)methoxy)methyl)-6-(4-(trifluoromethyl)cyclohexyl)benzoic acid] | ≥ 6.30 | 5.30 to 6.30 | < 5.00
19 | O=C(O)c1c(COC[C@@H]2CN(C(=O)c3cnn(Cc4ccc(F)cc4)c3)CC23CN(C(=O)C2(C(F)(F)F)CCC2)C3)cccc1C1CCC(C(F)(F)F)CC1 (stereo partly drawn) [Compound I-95, (S)-2-(((6-(1-(4-fluorobenzyl)-1H-pyrazole-4-carbonyl)-2-(1-(trifluoromethyl)cyclobutanecarbonyl)-2,6-diazaspiro[3.4]octan-8-yl)methoxy)methyl)-6-(4-(trifluoromethyl)cyclohexyl)benzoic acid] | ≥ 6.30 | 5.30 to 6.30 | < 5.00
20 | O=C(O)c1c(COC[C@@H]2CN(C(=O)c3cnn(Cc4ccc(F)cc4)c3)CC23CN(C(=O)C2CCO2)C3)cccc1C1CCC(C(F)(F)F)CC1 (stereo partly drawn) [Compound I-96] | 5.30 to 6.30 | < 5.00 | < 5.00
